Measurements as given in patent publication US20230201202A1, “COMPOSITIONS AND METHODS FOR SENSITIZING ACUTE MYELOID LEUKEMIAS TO CHEMOTHERAPY” (Duke University, priority 2020, published 2023).

Experiments:
Type in all cases: cell-based
[1] = system: phosphorylation of AKT and downstream substrates; assay: Western immunoblotting of AKT pathway phosphorylation in AML cell lines; conditions: for Phosphorylation of AKT and its downstream substrates: cell line models of AML, immunoblot (FIG. 1d, FIG. 4b)
phosphorylation of AKT = assay: Conditioned media and SDF1-a cytokine experiments (AKT activation in AML cells)
Experimental: Serum free RPMI-1640 medium with incubated with a confluent plate of HS-5 cells for 36 hours. Conditioned media was centrifuged at 1200 rpm for 5 minutes and filtered with a 0.45 uM filter to remove any remaining cells. AML cells were incubated with conditioned media with or without IPI-549 for 30 minutes prior to harvesting on ice for lysate preparation. An analogous strategy was performed with SDF-1a (200 ng/mL) containing media. SDF-1a was purchased from ProteinTech and solubilized in water.

AML cells = assay: In vitro drug sensitivity assay (GI50 assay, CellTiter-Glo); conditions: for Sensitization of AML cells to the drug by IPI-549 treatment; GI50 of combination vs drug alone: indicated AML cell lines (FIG. 3a-b); for Chemosensitization to the drug mediated by PI3Kγ inhibition with IPI-549: OCI-AML2 cells (FIG. 6); for Chemosensitization of AML cells by inhibitors of alternative PI3K catalytic isoforms (p110α, p110β, p110δ): sensitivity to doxorubicin, S63845 or selinexor (FIG. 3b)
Experimental: AML cells were plated in 96-well plates at a density of 5,000-10,000 cells per 100 μL per well. Wells were treated with drug dilution series at the doses indicated and cultured for 72 hours. Subsequently, relative cell viability was approximated using Promega CellTiter-Glo Luminescent Cell Viability Assay, normalized to either DMSO or the indicated background drug. GI50 values where approximated from dose-response curves plotted using GraphPad/Prism 8 software.

Compound: C[C@H](NC(=O)c1c(N)nn2cccnc12)c1cc2cccc(C#Cc3cnn(C)c3)c2c(=O)n1-c1ccccc1 [IPI-549]
- Phosphorylation of AKT and its downstream substrates [1]: lost
- Activation of AKT signaling by media conditioned with human BM-MSCs (HS-5) (phosphorylation of AKT; HL-60 (500 nM) and OCI-AML3 (100 nM IPI-549) cells (FIG. 1g)): fully precluded
- Activation of AKT by SDF1α (CXCL12) stimulation (phosphorylation of AKT; serum-deprived AML cells, 200 ng/mL SDF1α, HL-60 500 nM, OCI-AML3 100 nM IPI-549 (FIG. 1h)): prevented
- Correlation of sensitivity (GI50) to IPI-549 with sensitivity to AKT inhibition with MK-2206 (AML cells; panel of 10 AML cell lines (FIG. 5b-d)): strongly correlated

Compound: COc1cccc2c1C(=O)c1c(O)c3c(c(O)c1C2=O)C[C@@](O)(C(=O)CO)C[C@@H]3O[C@H]1C[C@H](N)[C@H](O)[C@H](C)O1 [doxorubicin]
- Sensitization of AML cells to the drug by IPI-549 treatment; GI50 of combination vs drug alone (AML cells): can sensitize

Compound: Cc1c(-c2c(-c3ccc(F)o3)sc3ncnc(O[C@H](Cc4ccccc4OCc4ccnn4CC(F)(F)F)C(=O)O)c23)ccc(OCCN2CCN(C)CC2)c1Cl [compound 563845]
- Sensitization of AML cells to the drug by IPI-549 treatment; GI50 of combination vs drug alone (AML cells): can sensitize

Compound: CN(Cc1cnc2nc(N)nc(N)c2n1)c1ccc(C(=O)N[C@@H](CCC(=O)O)C(=O)O)cc1 [methotrexate]
- Chemosensitization to the drug mediated by PI3Kγ inhibition with IPI-549 (AML cells): not observed

Compound: Cc1cc(C(C)Nc2ccccc2)c2nc(N3CCOCC3)cc(=O)n2c1 (stereo not drawn) [TGX-221]
- Chemosensitization of AML cells by inhibitors of alternative PI3K catalytic isoforms (p110α, p110β, p110δ) (AML cells): not observed

Compound: CN1CC[C@@H](NC(=O)Nc2ccc(C#N)cc2)C[C@@H]1c1nc2ccccc2[nH]1 [glasdegib]
- Chemosensitization to the drug mediated by PI3Kγ inhibition with IPI-549 (AML cells): not observed

Compound: CNC(=O)c1cc(Oc2ccc(NC(=O)Nc3ccc(Cl)c(C(F)(F)F)c3)cc2)ccn1 [sorafenib]
- Sensitization of AML cells to the drug by IPI-549 treatment; GI50 of combination vs drug alone (AML cells): can sensitize

Compound: O=C1[O][Pt]2([NH][C@@H]3CCCC[C@H]3[NH]2)[O]C1=O [oxaliplatin]
- Chemosensitization to the drug mediated by PI3Kγ inhibition with IPI-549 (AML cells): not observed

Compound: CC(=O)[C@]1(O)Cc2c(O)c3c(c(O)c2[C@@H](O[C@H]2C[C@H](N)[C@H](O)[C@H](C)O2)C1)C(=O)c1ccccc1C3=O [idarubicin]
- Sensitization of AML cells to the drug by IPI-549 treatment; GI50 of combination vs drug alone (AML cells): can sensitize

Compound: Cc1nc(NC(=O)N2CCC[C@H]2C(N)=O)sc1-c1ccnc(C(C)(C)C(F)(F)F)c1 [BYL-719, Alpelisib]
- Phosphorylation of AKT and its downstream substrates [1]: minimally capable of suppressing
- Chemosensitization of AML cells by inhibitors of alternative PI3K catalytic isoforms (p110α, p110β, p110δ) (AML cells): not observed

Compound: O=C(Nc1ccc2[nH]nc(-c3ccncc3)c2c1)[C@@H]1CCN(CC(=O)N2CCN(c3ccc(-c4ncccn4)cc3)CC2)C1 [SCH772984]
- Sensitization of AML cells to the drug by IPI-549 treatment; GI50 of combination vs drug alone (AML cells): can sensitize

Compound: CC(=O)O[C@@]12CO[C@@H]1C[C@H](O)[C@@]1(C)C(=O)[C@H](O)C3=C(C)[C@@H](OC(=O)[C@H](O)[C@@H](NC(=O)OC(C)(C)C)c4ccccc4)C[C@@](O)([C@@H](OC(=O)c4ccccc4)[C@H]21)C3(C)C [docetaxel]
- Chemosensitization to the drug mediated by PI3Kγ inhibition with IPI-549 (AML cells): not observed

Compound: COc1cc([C@@H]2c3cc4c(cc3[C@@H](O[C@@H]3O[C@@H]5CO[C@@H](C)O[C@H]5[C@H](O)[C@H]3O)[C@H]3COC(=O)[C@H]23)OCO4)cc(OC)c1O [etoposide]
- Sensitization of AML cells to the drug by IPI-549 treatment; GI50 of combination vs drug alone (AML cells): can sensitize

Compound: COc1cccc2c1C(=O)c1c(O)c3c(c(O)c1C2=O)C[C@@](O)(C(C)=O)C[C@@H]3O[C@H]1C[C@H](N)[C@H](O)[C@H](C)O1 [daunorubicin]
- Daunorubicin sensitivity under p110α inhibition; GI50 of combination vs daunorubicin alone (AML cells; any of the AML models tested (FIG. 2e; legend prints BYL-549)): did not alter
- Daunorubicin sensitivity under p110γ inhibition (IPI-549); GI50 of combination vs daunorubicin alone (AML cells; in 9/10 AML cell lines tested (FIG. 2e)): significantly potentiated
- Sensitization of AML cells to the drug by IPI-549 treatment; GI50 of combination vs drug alone (AML cells): can sensitize

Compound: CC(C)n1nc(-c2ccc3oc(N)nc3c2)c2c(N)ncnc21 [MLN-128]
- Effect on potency of AKT/p110γ inhibition (MK-2206 or IPI-549); GI50 of combination vs single drug (AML cells; panel of AML cell lines (FIG. 2d, FIG. 5g)): enhanced the potency

Compound: O=C(/C=C\n1cnc(-c2cc(C(F)(F)F)cc(C(F)(F)F)c2)n1)NNc1cnccn1 [selinexor]
- Sensitization of AML cells to the drug by IPI-549 treatment; GI50 of combination vs drug alone (AML cells): can sensitize

Compound: CC(C)(C)c1cc(NC(=O)Nc2ccc(-c3cn4c(n3)sc3cc(OCCN5CCOCC5)ccc34)cc2)no1 [quizartinib]
- Sensitization of AML cells to the drug by IPI-549 treatment; GI50 of combination vs drug alone (AML cells): can sensitize

Compound: Cc1sc2c(c1C)C(c1ccc(Cl)cc1)=N[C@@H](CC(=O)OC(C)(C)C)c1nnc(C)n1-2 [JQ1]
- Sensitization of AML cells to the drug by IPI-549 treatment; GI50 of combination vs drug alone (AML cells): can sensitize

Compound: Nc1ccn([C@@H]2O[C@H](CO)[C@@H](O)[C@@H]2O)c(=O)n1 [cytarabine]
- Chemosensitization to the drug mediated by PI3Kγ inhibition with IPI-549 (AML cells): not observed

Compound: pertussis toxin
- AKT phosphorylation ([1]; AML cell lines, Ptx 100 ng/mL for 24 hours (FIG. 1f)): diminished

Compound: Nc1ncn([C@@H]2O[C@H](CO)[C@@H](O)[C@H]2O)c(=O)n1 [azacytidine]
- Chemosensitization to the drug mediated by PI3Kγ inhibition with IPI-549 (AML cells): not observed
